The values that follow come from ChEMBL document CHEMBL1123398, “Conformationally restricted inhibitors of angiotensin converting enzyme: synthesis and computations” (J Med Chem, 1986).

In experiment [1] the target is T1, Angiotensin-converting enzyme (Homo sapiens, UniProt P12821). The experiment is described as follows: Inhibitory concentration (isomer B) against Angiotensin I converting enzyme.
For experiment [2], the target named is T1, Angiotensin-converting enzyme. Briefly: Inhibitory concentration (isomer A) against Angiotensin I converting enzyme.
The target is the same in experiment [3]. Briefly: Inhibitory concentration against Angiotensin I converting enzyme.
Experiment [4] shares this target. Briefly: Inhibitory concentration against Angiotensin I converting enzyme; IA is Inactive with 0% inhibition at 3.3 x 10e-4;.

Molecules are shown by their SMILES.

T1 sequence (P12821 whole entry): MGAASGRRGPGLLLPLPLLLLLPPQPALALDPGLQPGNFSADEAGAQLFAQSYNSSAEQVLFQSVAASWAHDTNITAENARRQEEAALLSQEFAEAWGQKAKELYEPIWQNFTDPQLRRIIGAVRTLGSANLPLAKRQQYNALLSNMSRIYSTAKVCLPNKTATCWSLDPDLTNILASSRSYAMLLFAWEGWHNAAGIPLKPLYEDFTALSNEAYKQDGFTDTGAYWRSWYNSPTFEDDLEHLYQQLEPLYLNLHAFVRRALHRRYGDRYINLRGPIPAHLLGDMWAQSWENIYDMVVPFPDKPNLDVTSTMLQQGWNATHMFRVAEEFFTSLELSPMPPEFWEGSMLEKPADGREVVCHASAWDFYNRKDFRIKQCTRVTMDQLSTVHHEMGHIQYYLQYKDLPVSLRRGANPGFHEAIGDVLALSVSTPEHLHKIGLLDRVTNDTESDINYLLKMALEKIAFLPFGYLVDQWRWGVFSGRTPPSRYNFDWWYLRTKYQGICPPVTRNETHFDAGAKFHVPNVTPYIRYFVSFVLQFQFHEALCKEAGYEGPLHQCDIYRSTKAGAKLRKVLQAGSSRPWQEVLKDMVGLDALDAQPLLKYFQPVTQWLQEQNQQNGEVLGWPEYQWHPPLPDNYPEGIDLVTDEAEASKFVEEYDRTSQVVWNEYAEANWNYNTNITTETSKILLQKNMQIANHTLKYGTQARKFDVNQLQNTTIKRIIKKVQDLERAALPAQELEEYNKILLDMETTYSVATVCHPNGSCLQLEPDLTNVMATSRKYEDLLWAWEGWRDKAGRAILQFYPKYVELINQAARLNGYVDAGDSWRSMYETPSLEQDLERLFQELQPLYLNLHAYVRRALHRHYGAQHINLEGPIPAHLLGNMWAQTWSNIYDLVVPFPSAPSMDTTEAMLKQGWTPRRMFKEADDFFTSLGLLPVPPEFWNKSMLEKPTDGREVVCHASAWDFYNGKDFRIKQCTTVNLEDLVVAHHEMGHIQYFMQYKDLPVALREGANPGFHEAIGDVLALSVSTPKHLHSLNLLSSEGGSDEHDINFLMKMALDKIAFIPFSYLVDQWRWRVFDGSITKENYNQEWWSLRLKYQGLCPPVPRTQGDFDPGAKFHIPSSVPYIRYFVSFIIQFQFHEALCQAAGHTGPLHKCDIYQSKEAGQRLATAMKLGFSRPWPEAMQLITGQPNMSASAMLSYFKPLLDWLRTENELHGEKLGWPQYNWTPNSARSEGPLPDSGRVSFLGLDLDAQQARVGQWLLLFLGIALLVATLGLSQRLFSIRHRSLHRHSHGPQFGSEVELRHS

As for `O=C(O)CN1CCCCCCC(NC(CCc2ccccc2)C(=O)O)C1=O` (stereo unspecified), the results for the IC50 in experiment [1] and in experiment [2] were 0.0081 µM and 1.3 µM, respectively.

As for `O=C(O)CN1CCCCC(NC(CCc2ccccc2)C(=O)O)C1=O` (stereo unspecified), the IC50 in experiment [1] came out at 0.019 µM; in experiment [2], 0.7 µM.

The molecule `O=C(O)CN1CCCCC[C@H](N[C@@H](CCc2ccccc2)C(=O)O)C1=O` came in with an IC50 in experiment [1] of 0.002 µM.

With `O=C(O)CN1CCC(NC(CCc2ccccc2)C(=O)O)C1=O` (stereo unspecified), the values for the IC50 in experiment [1] and in experiment [2] were 19 µM and 12 µM, respectively.

In the case of `O=C(O)CN1CCCC(NC(CCc2ccccc2)C(=O)O)C1=O` (stereo unspecified), the IC50 in experiment [1] worked out at 1.7 µM; in experiment [2] it was 0.43 µM.

On to `O=C(O)CN1CCCCCC(NC(CCc2ccccc2)C(=O)O)C1=O` (stereo unspecified), for which the half-inhibitory concentration (IC50) in experiment [1] worked out at 0.0048 µM; in experiment [2], 1.7 µM.

`NC1CCCCN(CC(=O)O)C1=O` (stereo unspecified) had an IC50 in experiment [3] of 480 µM.

As for `NC1CCN(CC(=O)O)C1=O` (stereo unspecified), the IC50 entry in experiment [4] was “Not Active”.

For the molecule `O=C(O)CN1CCCCC[C@@H](N[C@H](CCc2ccccc2)C(=O)O)C1=O`, the IC50 in experiment [1] turned out to be 0.092 µM.

In experiment [3], `NC1CCCCCN(CC(=O)O)C1=O` (stereo unspecified) gave an IC50 of 440 µM.

`NC1CCCN(CC(=O)O)C1=O` (stereo unspecified) displayed a concentration for half-maximal inhibition (IC50) in experiment [3] of 1700 µM.

As usually defined, the IC50 is the concentration that gives 50% inhibition. Lower therefore signals greater potency.
